The text below walks through data of PMC13064039, “Exploring the binding interaction of rupatadine with bovine serum albumin using multi-spectroscopic and molecular modeling approaches” (BMC Chemistry, 2026).

For series [1], the target named is T1, bovine serum albumin (BSA) (Bos taurus, UniProt P02769). The series is described as follows: Fluorescence quenching of BSA by RUPA (Stern-Volmer, modified Stern-Volmer, van't Hoff analysis). Format: binding. Particulars: for Ksv (Stern-Volmer quenching constant): BSA 2 µM, RUPA 0-100 µM. The method, then:
The fluorescence data were corrected for the inner filter effect (IFE) according to the Lakowicz method to ensure that the obtained binding parameters were not impacted by absorption artifacts.
To account for the possible influence of inner filter effects (IFE), the fluorescence intensities were corrected using the following formula (Eq. 1): 1
The process of fluorescence quenching was determined using the Stern-Volmer equation (Eq. 2): 2
The KSV and Kq values were determined by the graph of F0/F against [Q]
Stoichiometric analysis is used to define the various equilibria for a macromolecule’s binding of a ligand by binding sites (n). The number of binding sites (n) and the binding constant (Kb) were calculated using the modified Stern–Volmer equation (Eq. 3). 3
The thermodynamic characteristics of the binding reaction serve as the primary evidence for the binding force. Hydrogen bonds, hydrophobic forces, electrostatic interactions, van der Waals interactions, and other binding forces could all be present between small molecules and biomacromolecules. The temperature dependence of the binding constant was thus measured for this purpose at three distinct temperatures: 303, 310, and 318 K (Fig. 4).
The Gibbs–Helmholtz equation provided below was used to assess the free energy change (ΔG) value (Eq. 5).

The target of series [2] is T1, bovine serum albumin (BSA). Nature of the series: Competitive binding analysis using site probes (phenylbutazone site I, diazepam site II). Particulars: site marker competition. The method, then:
Phenylbutazone and diazepam are the site probes for sites Ⅰ and Ⅱ, respectively. The BSA and site probe concentrations in this experiment were maintained at 2 µM and 10 µM, respectively. Rupatadine concentrations ranged from 10 to 100 µM. After excitation at 279 nm, fluorescence intensity measurements were made at 341 nm. At 303 K, measurements were made.

Series [3] addresses T1, bovine serum albumin (BSA). The series is described as follows: Synchronous fluorescence of BSA with RUPA. It is filed as binding. The conditions noted are these: RUPA 0-100 µM, BSA 2 µM, 303 K. From the text:
Using synchronous fluorescence, the influence of the ligand on the protein has been thoroughly investigated. The distinctive details regarding the protein’s Tyr and Trp residues can be gained by fixing the scanning interval (∆λ) between the excitation and emission wavelengths at 15 and 60 nm, respectively.

The target in series [4] is T1, bovine serum albumin (BSA). The series is described as follows: FT-IR spectroscopy of BSA with and without RUPA. Particulars: BSA 2 µM + RUPA 40 µM, pH 7.4, 303 K; free BSA 1646.
On the set-up of series [5]: method as in PMID 23160091. The conditions noted are these: cited from earlier work.
Series [6] relates to ovarian cancer cells (platelet-activating factor receptor). The arrangement: method as in PMID 34571986. The conditions noted are these: in vitro; targets the platelet-activating factor receptor; cited from earlier work.

SMILES strings stand for the structures.

T1 sequence (P02769 25-607): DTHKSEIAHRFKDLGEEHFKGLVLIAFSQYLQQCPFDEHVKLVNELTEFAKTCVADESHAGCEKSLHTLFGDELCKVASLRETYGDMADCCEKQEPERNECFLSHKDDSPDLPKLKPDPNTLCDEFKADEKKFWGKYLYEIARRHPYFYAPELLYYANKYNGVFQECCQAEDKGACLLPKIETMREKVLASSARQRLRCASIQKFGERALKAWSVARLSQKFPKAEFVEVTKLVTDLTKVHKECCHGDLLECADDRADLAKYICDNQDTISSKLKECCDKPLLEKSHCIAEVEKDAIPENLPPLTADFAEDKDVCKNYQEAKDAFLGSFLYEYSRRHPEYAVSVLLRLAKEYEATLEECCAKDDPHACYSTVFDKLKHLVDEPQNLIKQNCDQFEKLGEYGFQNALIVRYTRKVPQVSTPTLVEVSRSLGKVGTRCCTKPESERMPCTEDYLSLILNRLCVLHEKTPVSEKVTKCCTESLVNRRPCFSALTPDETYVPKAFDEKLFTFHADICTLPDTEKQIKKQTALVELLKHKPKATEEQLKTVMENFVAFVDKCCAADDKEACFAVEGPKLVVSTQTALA

Take `Cc1cncc(CN2CCC(=C3c4ccc(Cl)cc4CCc4cccnc43)CC2)c1` [RUPA, 13-chloro-2-[1-[(5-methylpyridin-3-yl)methyl]piperidin-4-ylidene]−4-azatricyclo [9.4.0.03,8] pentadeca-1(11),3(8),4,6,12,14-hexaene]: the results for the “n (number of binding sites)” value in series [1] (303 K), in series [1] (310 K) and in series [1] (318 K) were 0.57, 0.83 and 1.06, respectively. Further, the “Ksv (Stern-Volmer quenching constant)” value in series [1] (303 K, pH 7.4) is listed as 1.07 × 10^4 L.mol^− 1; in series [1] (310 K, pH 7.4) it was 0.82 × 10^4 L.mol^− 1; in series [1] (318 K, pH 7.4), 0.48 × 10^4 L.mol^− 1. In addition, the “Kq (quenching rate constant)” value in series [1] (310 K, τ0 = 10^-8 s) is listed as 0.82 × 10^12 L.mol^− 1.s^− 1. For the same compound, the “∆G^o (Gibbs free energy change)” value is -3.4823 kcal/mol in series [1] (pH 7.4, 303 K) and -5.2287 kcal/mol in series [1] (pH 7.4, 318 K). In series [1] (pH 7.4, van't Hoff, 303-318 K), the “∆H^o (enthalpy change)” value was 31.7935 kcal/mol. For the same compound, the “∆S^o (entropy change)” value in series [1] (pH 7.4, van't Hoff, 303-318 K) was 0.487 KJ mol^− 1 K^− 1. The “enthalpy change (ΔH)” value in series [1] (within the examined temperature range) is 133.024 kJ mol^− 1. In addition, in series [2], the “binding site of RUPA on BSA” value is “site I”. Also, the “shift in synchronous fluorescence” value in series [3] (∆λ = 15 nm (Tyr)) is reported as “no shift”. In addition, in series [3] (∆λ = 60 nm (Trp)), the “red shift of ∆λmax in synchronous fluorescence” value is recorded as “about 2 nm”. For the same compound, the “amide I peak location of BSA following the RUPA reaction” value in series [4] worked out at 1642 cm^− 1. For the same compound, in series [5], the “attached to plasma proteins” value is recorded as “approximately 99%”. In addition, in series [6], the “effect on ovarian cancer cell proliferation and migration” value is “prevent ovarian cancer cells from proliferating and migrating”.
